ChEMBL document CHEMBL5647693, “Molecular basis underlying resistance to Mps1/TTK inhibitors” (Oncogene, 2016)
pIC50: −log10 of the molar value.

What was measured:
Assay in all cases: cells
Type in all cases: functional, cell-based
[1] = tested on: HCT-116; details: Homo sapiens, HCT-116, 120 h
[2] = tested on: HCT-116; details: Homo sapiens, HCT-116, 120 h; remark: listed apart in the source
[3] = tested on: HeLa; details: Homo sapiens, 120 h
[4] = tested on: HCT-116; details: Homo sapiens, HCT-116, 120 h; remark: listed apart in the source
[5] = tested on: U2OS; details: Homo sapiens, 120 h
[6] = tested on: DLD-1; details: Homo sapiens, DLD-1, 120 h
[7] = tested on: HeLa; details: Homo sapiens, 120 h; remark: listed apart in the source
[8] = tested on: HeLa; details: Homo sapiens, 120 h; remark: listed apart in the source
[9] = tested on: DLD-1; details: Homo sapiens, DLD-1, 120 h; remark: listed apart in the source
[10] = tested on: HCT-116; details: Homo sapiens, HCT-116, 120 h; remark: listed apart in the source
[11] = tested on: DLD-1; details: Homo sapiens, DLD-1, 120 h; remark: listed apart in the source
[12] = tested on: HeLa; details: Homo sapiens, 120 h; remark: listed apart in the source

## Cc1cc(N2CCOCC2)ccc1Nc1nc(NC2CCCCC2)c2nc[nH]c2n1
[1]
  pIC50: 5.97
[2]
  pIC50: 7.20
[3]
  pIC50: 6.55
[4]
  pIC50: < 5.70
[5]
  pIC50: 6.98
[6]
  pIC50: 6.74
[7]
  pIC50: < 5.70
[8]
  pIC50: 6.33
[9]
  pIC50: < 5.70
[10]
  pIC50: 6.80
[11]
  pIC50: 7.12
[12]
  pIC50: < 5.70
